The test system of assay [1] is human aortic endothelial cells (HAECs). In words: MTT assay, viability of HAECs inhibited by palmitic acid. The assay is classed as cell-based. As to conditions: HAECs pretreated with 10 μM daphnetin 24 h, then 500 μM palmitic acid 24 h; vs palmitic acid treated cells without daphnetin; FIG. 1. The procedure:
(§1) Human aortic endothelial cells (HAECs) were purchased from Shanghai Bioleaf Biotech Co., Ltd. Palmitic acid (PA) was purchased from SIGMA Company. A palmitic acid solution having a concentration of 500 μM was prepared by dissolving palmitic acid in water. A cell culture incubator was adopted to culture the cells in a temperature-constant, humidified, sterile condition. The cells were cultured in wells of culture plates at an atmosphere of 95% air and 5% CO2 at 37° C. in the incubator. The experiments were performed on different experimental groups of cells.
The HAECs that were previously cultured in a 12-well cell culture plates were divided into 6 different experimental groups and respectively applied with daphnetin in different concentrations, 0 μM, 1 μM, 10 μM, 50 μM, 100 μM, and 200 μM, all followed with an 24-hour incubation. Then, each of the 6 groups of cells was further divided into two subgroups; one was applied with 500 μM palmitic acid, the other was not, and all followed with another 24-hour incubation.
An MTT assay was performed to all groups of cells. […] The absorbance was measured at a wavelength of 490 nm in a spectrophotometer. The absorbance of this colored solution can be quantified by measuring at a certain wavelength (usually between 500 and 600 nm) by a spectrophotometer.
For orientation: Formazan colour is commonly taken as a measure of viable cells.

Assay [2] has as its system interleukin-6 (IL-6) mRNA. In words: IL-6 mRNA level detection by RT-PCR in palmitic acid treated HAECs. The assay is classed as cell-based, human. Conditions: FIG. 2. The procedure:
as §1
The HAECs that were previously cultured in a 12-well cell culture plate were divided into 4 different experimental groups and respectively applied with daphnetin in the respective concentrations, 0 μM, 0 μM, 50 μM, 100 μM, and all followed with an 24-hour incubation. Then, the last 3 groups of cells were respectively applied with 500 μM palmitic acid, the first was not, and all followed with another 24-hour incubation. The detecting of mRNA levels corresponding to interleukin-6 (IL-6) was respectively carried out on each group of cells by using reverse transcription RNA and real-time quantitative polymerase chain reaction (PCR), and the specific method is as follows:
The medium for cell culture in the wells was removed. 500 μL of TRIzol™ reagent was added to each well, and the culture plate was then shaken at room temperature for 5 minutes. Then the cells in the wells were collected and transferred to a 1.5 mL eppendorf (EP) tube. 200 μl (taking […] of total volume of the substance in the EP tube) of chloroform was then added to the EP tube for extraction of […]. The samples were then vigorously stirred for 15 seconds, rested for 15 minutes at room temperature, and then centrifuged at a relative centrifugal force of 12,000 g for 10 minutes at 4° C. […] The concentration of the solution was measured by an ultraviolet spectrophotometer. […]

The subject of assay [3] is mitochondrial membrane fusion related protein Mfn1. In words: Western blot protein detection of Mfn1 in palmitic acid treated HAECs. It counts as cell-based, human. As to conditions: FIG. 3A, 3B. The method, then:
(§2) Human aortic endothelial cells (HAECs) were purchased from Shanghai Bioleaf Biotech Co., Ltd. Palmitic acid (PA) was purchased from SIGMA Company. A palmitic acid solution having a concentration of 500 μM was prepared by dissolving palmitic acid in water. A cell culture incubator was adopted to culture the cells in a temperature-constant, humidified, sterile condition. The cells were cultured in wells of culture plates at an atmosphere of 95% air and 5% CO2 at 37° C. in the incubator. The experiments were performed on different experimental groups of cells. The HAECs that were previously cultured in a 6-well cell culture plate were divided into 3 different experimental groups, the control (Ctrl) group, the PA group, and the DAP+PA group. The cells of the DAP+PA group were applied with daphnetin in a concentration of 100 μM followed with a 24-hour incubation. Then, the cells of both the PA group and the DAP+PA group were applied with 500 μM palmitic acid, all followed with another 24-hour incubation. The protein detection was respectively carried out on each group of cells as follows. The medium for cell culture in the wells was removed. 150 μL of IP lysis buffer was added to each well of the culture plate. […] The supernatants were collected, and the proteins therein were quantified by bicinchoninic acid (BCA) assay, and normalized. […] Target proteins were detected by chemiluminescence.
On the technique in general: A western blot detects proteins with antibodies after separation by electrophoresis.

For assay [4], the system named is mitochondrial membrane fusion related protein Mfn2. Kind of assay: Western blot protein detection of Mfn2 in palmitic acid treated HAECs. Conditions: 500 μM palmitic acid 24 h (PA group) vs control group, FIG. 3A, 3B. The assay is classed as cell-based, human. The method, then: as §2

Molecules are shown by their SMILES.

As to `O=c1ccc2ccc(O)c(O)c2o1` [daphnetin, 7,8-dihydroxycoumarin], in assay [1], the relative cell viability entry is “higher viabilities”. Further, in assay [2] (HAECs pretreated with 50 μM or 100 μM daphnetin, then 500 μM palmitic acid), the “concentration dependence of inhibition of IL-6 mRNA level” value is on record as “inhibition effect increases with the concentration”. In addition, the “mRNA level corresponding to IL-6” value in assay [2] (HAECs pretreated with 100 μM daphnetin 24 h, then 500 μM palmitic acid 24 h, vs palmitic acid alone) is recorded as “significantly decreased”. Also, in assay [3] (100 μM daphnetin 24 h then 500 μM palmitic acid 24 h (DAP+PA group) vs PA group), the “relative protein expression level of Mfn1” value was “significantly increasing”.

Consider `CCCCCCCCCCCCCCCC(=O)O` [palmitic acid], for which the “expression of Mfn2” value in assay [4] is given as “reducing the expression”. Also, the “increase of mRNA level corresponding to IL-6” value in assay [2] (HAECs, 500 μM palmitic acid 24 h without daphnetin, vs control group) was “about 20 times”. In addition, the “expression of Mfn1” value in assay [3] (500 μM palmitic acid 24 h (PA group) vs control group) is given as “reducing the expression”.

These data come from patent publication US11110075B2, “Use of daphnetin in improving function of aortic endothelial cell” (XI'AN JIAOTONG UNIVERSITY, priority 2019, dated 2021).
